# Test results reported in US9475855B2, “Human Notch3 based fusion proteins as decoy inhibitors of Notch3 signaling” (THE TRUSTEES OF COLUMBIA UNIVERSITY IN THE CITY OF NEW YORK, priority 2008, dated 2016).
# B1: P1GF: placental growth factor, a selective ligand for Flt1 (protein, UniProt P49763 19-221, looked up)
# Placenta growth factor: LPAVPPQQWALSAGNGSSEVEVVPFQEVWGRSYCRALERLVDVVSEYPSEVEHMFSPSCVSLLRCTGCCGDENLHCVPVETANVTMQLLKIRSGDRPSYVELTFSQHVRCECRHSPGRQSPDMPGDFRADAPSFLPPRRSLPMLFRMEWGCALTGSQSAVWPSSPVPEEIPRMHPGRNGKKQQRKPLREKMKPERCGDAVPRR
# How the values were obtained:
# Assay type in all cases: cell-based, human
# Ad-N1IC-transduced HUVEC = assay: Notch-induced HUVEC budding on collagen gel
# Method: HUVEC were transduced with either Ad-LacZ or Ad-N1IC at 40 MOI. FIGS. 23A-23C show the effect of inhibitors for receptor tyrosine kinases on Notch-induced HUVEC budding. FIG. 23A is a photograph of budding of Ad-N1IC-transduced HUVEC treated with PD166866, ZD1893 at 1 μm and SU5416 at 0.5 μm. […] FIGS. 23D-E show induction of Flt-1 expression in Ad-N1IC-transduced HUVEC. […] FIGS. 23F-G show promotion of Notch-induced HUVEC budding with P1GF stimulation. Ad-N1IC-transduced HUVEC were cultured on collagen gel with SFM, instead of complete medium, in the absence or presence of 50 ng/ml P1GF. […] FIGS. 23H-I show the effect of Flt-1 siRNA transfection on Flt1 expression. Ad-N1IC-transduced HUVEC were transfected with 200 pmol of either control (CT) or Flt-1 siRNA. […] Ad-N1IC-transduced HUVEC were transfected with either 100 or 200 pmol of siRNA and cultured on collagen gel for 2 days.
# These Figures show inhibition of budding of Ad-N1IC-transduced HUVEC with treatment of matrix metallo-proteinase inhibitor GM6001. Either Ad-LacZ or Ad-N1IC-HUVEC at a MOI of 40 pfu/cell were cultured on collagen gel for 5 days in the absence or presence of GM6001 at 50 μm.
# To test whether Notch signaling is down-stream of VEGF, we evaluated three distinct inhibitors for receptor tyrosine kinases, including VEGFR on N1IC-induced HUVEC budding, because three growth factors existed in complete medium (FIG. 23A-C). […] Thus, we examined whether activation of Notch signaling affected Flt1/VEGFR1 expression in HUVEC, because SU5416 inhibits both Flt1 and Flk1 kinase activity (15). […] P1GF increased the number of Ad-N1IC-HUVEC buds by 150%, compared to the absence of P1GF (FIG. 23F). Moreover, P1GF increased HUVEC buds containing multiple filopodia by 250% (FIG. 23G). […] Transfection with Flt1 siRNA inhibited budding of both Ad-N1IC- and Ad-VEGF-HUVEC to a similar extent (data not shown).
# CBF1 promoter activity = assay: VEGF-induced Notch signaling, CBF1 promoter (CSL-luciferase) reporter activity in HUVEC; conditions: Ad-VEGF-transduced HUVEC
# Method: To determine VEGF-induced Notch signaling, HUVEC which were infected with adenovirus were used. HUVEC plated 1-day prior in 6 well plates at 8.0×10^5 were infected with either Ad-LacZ as control or Ad-VEGF at indicated m.o.i. in the presence or absence of Ad-N1ECD/Fc. Two days after infection, infected HUVEC were re-seeded into 24-well plate at 1.5×10^5 cell in triplicate and cultured for 24 hours, and then transfected with 12.5 ng pRL-SV40 (Promega) and 137.5 ng pGA981-6 using Effectene transfection reagent (Qiagen). Cells were harvested either 1 or 2 days post-transfection and luciferase activity was determined by using the Dual-Luciferase® Reporter Assay System (Promega).
# One can measure Notch signaling function by measuring transcriptional activity of CBF1 promoter, which is activated by binding of Notch-IC to CBF1. We measured CBF1 promoter activity in HUVEC which was infected with adenovirus encoding VEGF-165 at different MOI (FIG. 6). Induction of CBF1 promoter was clearly detected in Ad-VEGF-infected HUVEC, compared to Ad-LacZ-infected cells in the MOI dependent manner. […] Thus VEGF induced Notch signaling activity.
# HUVEC = HUVEC proliferation (CCK-8 kit); conditions: SFM with 1% FBS, 4 days (FIG. 26B)
# Method: These Figures show proliferation of Ad-VEGF165-transduced HUVEC. HUVEC were transduced with Ad-VEGF165 at the indicated dosages. Ad-LacZ was also co-infected to make the same total amount of adenovirus at a MOI of 40 pfu/cell. HUVEC were suspended in SFM supplemented with 1% FBS and then plated at 1×10^4 cells/well in 24-well multi-wll plates with 0.4 ml of medium. After 4 days, cell numbers were determined using the CCK-8 kit and the results are indicated as the ratio of cell numbers determined to the number of control cells, which were transduced with Ad-GFP at a MOI of 40 pfu/cell. […] Ad-VEGF-transduced HUVEC were treated with SU5416 at the indicated dosages.
# These Figures show the effect of alteration of Notch signaling on cell proliferation. The cells were transduced with the indicated adenoviruses. Ad-GFP was also co-infected to make the same total amount of adenovirus at a MOI of 60 pfu/cell. After 4 days, cell numbers were determined using the CCK-8 kit and results are indicated as the ratio of cell numbers determined to the number of control cells, which were transduced with AD-GFP at MOI of 60 pfu/cell. […] Transduced HUVEC were suspended in complete medium and then plated at 1×10^4 cells/well in 24-well multiwell plates with 0.4 ml of indicated medium (□: Ad-N1IC; ▪: Ad-N1ECDFc). […]
# Notch3 = assay: quantitative RT-PCR of Prox1-induced Notch3 expression in HUVEC; conditions: Ad-Prox1 infected HUVEC, 24 hours
# Method: (A) It was examined if extopic expression of Prox1 would alter the expression of Notch proteins or ligands. Twenty-four hours post adenoviral infection with either Ad-Prox1 or Ad-LacZ, HUVEC total RNA was isolated and quantitative RT-PCR for Notch1-4, Dll4 and Jagged1 performed. […] (B) Compound E (cE), Presenlin inhibitor that inhibits Notch signaling, was incubated for 24 hours on either Ad-LacZ or Ad-Prox1 infected HUVEC. Total RNA was isolated and quantitative PCR performed to determine Notch3 expression.
# It was examined if ectopic expression of Prox1 would alter the expression of Notch proteins or ligands. […] Total RNA was isolated and quantitative RT-PCR performed to determine Notch3 expression. Prox1 induced Notch3 expression and this induction was inhibited by the addition of compound E.
# ephrinB2 = assay: quantitative RT-PCR of Prox1-induced Notch-target gene ephrinB2 in HUVEC; conditions: Ad-Prox1 infected HUVEC, 24 hours
# Method: (§1) HUVEC were infected with adenoviruses encoding LacZ, Prox1, N1Ic or N4/int-3. Compound E(cE), Presenlin inhibitor that inhibits Notch signaling, was incubated for 24 hours on either Ad-LacZ or Ad-Prox1 infected HUVEC and total RNA isolated. Quantitative RT-PCR was performed for the endothelial Notch-target genes, VEGFR-3, EphrinB2, and Hey2. The Prox-1 mediated induction of the Notch target genes, ephrinB2, VEGFR-3 and Hey2 was inhibited by the addition of the Notch signaling inhibitor Compound E. Thus, Prox1 regulates the expression of ephrinB2, VEGFR-3 and Hey2 via Notch.
# as §1, with “E, as shown in FIG. 48.” for “E.”
# VEGFR-3 = assay: quantitative RT-PCR of Prox1-induced Notch-target gene VEGFR-3 in HUVEC; conditions: Ad-Prox1 infected HUVEC, 24 hours
# Method: as §1
# as §1, with “E, as shown in FIG. 48.” for “E.”
# Hey2 = assay: quantitative RT-PCR of Prox1-induced Notch-target gene Hey2 in HUVEC; conditions: Ad-Prox1 infected HUVEC, 24 hours
# Method: as §1
# as §1, with “E, as shown in FIG. 48.” for “E.”
# [1] = receptor tyrosine kinase inhibitors, 1 μM, complete medium
molecule,measurement,setting,value
CNC(=O)[C@H](Cc1c[nH]c2ccccc12)NC(=O)[C@@H](CC(=O)NO)CC(C)C [GM6001],budding of Ad-N1IC-HUVEC,"Ad-N1IC-transduced HUVEC; GM6001 at 50 μm, collagen gel, 5 days",clearly decreased
same,budding of Ad-N1IC-HUVEC,Ad-N1IC-transduced HUVEC; fibrin gel (data not shown),clearly decreased
"Cc1cc(C)c(/C=C2\C(=O)Nc3ccccc32)[nH]1 [SU5416, reference compound]",VEGF-induced CBF1 promoter / CSL-luciferase reporter activity,CBF1 promoter activity,decreased
same,budding of Ad-N1IC-HUVEC versus viability,"Ad-N1IC-transduced HUVEC; lower concentrations, dose-dependency (FIG. 23C)",selectively inhibited
same,budding of Ad-N1IC-HUVEC,Ad-N1IC-transduced HUVEC; [1],clearly inhibited
same,proliferation of Ad-VEGF-transduced HUVEC,HUVEC,inhibitory effect
C[C@H](NC(=O)Cc1cc(F)cc(F)c1)C(=O)N[C@H]1N=C(c2ccccc2)c2ccccc2N(C)C1=O [Compound E],Prox1 induction of Notch3 expression,Notch3,inhibited
same,Prox-1 mediated induction of ephrinB2,ephrinB2,inhibited
same,Prox-1 mediated induction of VEGFR-3,VEGFR-3,inhibited
same,Prox-1 mediated induction of Hey2,Hey2,inhibited
COc1cc(OC)cc(-c2cc3cnc(N)nc3nc2NC(=O)NC(C)(C)C)c1 [P13166866],budding of Ad-N1IC-HUVEC,Ad-N1IC-transduced HUVEC; [1],Neither P13166866 or ZD1893 affected budding
B1,increase of HUVEC buds containing multiple filopodia,"Ad-N1IC-transduced HUVEC; 50 ng/ml P1GF, SFM",250%
same,increase of the number of Ad-N1IC-HUVEC buds,"Ad-N1IC-transduced HUVEC; 50 ng/ml P1GF, SFM, compared to the absence of P1GF",150%
